Results taken from publication PMC3914206.

What was measured:
Type in all cases: binding
panel of 442 kinases [1] = target: T1, panel of 442 kinases (Homo sapiens, UniProt P00533, L861Q); settings: Compound Concentration 10 µM
T1 construct: purchased KINOMEscan
Description: (§1) We assessed the selectivity of members of this scaffold using the KINOMEscan methodology across a near comprehensive panel of 442 kinases [[18,27]].

panel of 442 kinases [2] = target: T2, panel of 442 kinases (Homo sapiens, UniProt P48736); settings: Compound Concentration 10 µM
T2 construct: purchased KINOMEscan
Description: as §1

panel of 442 kinases [3] = target: T3, panel of 442 kinases (Homo sapiens, UniProt Q9P289); settings: Compound Concentration 10 µM
T3 construct: purchased KINOMEscan
Description: as §1

panel of 442 kinases [4] = target: T4, panel of 442 kinases (Homo sapiens, UniProt Q15349); settings: compound concentration 10 µM; for % Ctrl, RSK3(Kin.Dom.1-N-terminal): kinase RSK3(Kin.Dom.1-N-terminal); for % Ctrl, RSK3(Kin.Dom.2-C-terminal): kinase RSK3(Kin.Dom.2-C-terminal)
T4 construct: purchased KINOMEscan
Description: as §1

T2 sequence (P48736 whole entry): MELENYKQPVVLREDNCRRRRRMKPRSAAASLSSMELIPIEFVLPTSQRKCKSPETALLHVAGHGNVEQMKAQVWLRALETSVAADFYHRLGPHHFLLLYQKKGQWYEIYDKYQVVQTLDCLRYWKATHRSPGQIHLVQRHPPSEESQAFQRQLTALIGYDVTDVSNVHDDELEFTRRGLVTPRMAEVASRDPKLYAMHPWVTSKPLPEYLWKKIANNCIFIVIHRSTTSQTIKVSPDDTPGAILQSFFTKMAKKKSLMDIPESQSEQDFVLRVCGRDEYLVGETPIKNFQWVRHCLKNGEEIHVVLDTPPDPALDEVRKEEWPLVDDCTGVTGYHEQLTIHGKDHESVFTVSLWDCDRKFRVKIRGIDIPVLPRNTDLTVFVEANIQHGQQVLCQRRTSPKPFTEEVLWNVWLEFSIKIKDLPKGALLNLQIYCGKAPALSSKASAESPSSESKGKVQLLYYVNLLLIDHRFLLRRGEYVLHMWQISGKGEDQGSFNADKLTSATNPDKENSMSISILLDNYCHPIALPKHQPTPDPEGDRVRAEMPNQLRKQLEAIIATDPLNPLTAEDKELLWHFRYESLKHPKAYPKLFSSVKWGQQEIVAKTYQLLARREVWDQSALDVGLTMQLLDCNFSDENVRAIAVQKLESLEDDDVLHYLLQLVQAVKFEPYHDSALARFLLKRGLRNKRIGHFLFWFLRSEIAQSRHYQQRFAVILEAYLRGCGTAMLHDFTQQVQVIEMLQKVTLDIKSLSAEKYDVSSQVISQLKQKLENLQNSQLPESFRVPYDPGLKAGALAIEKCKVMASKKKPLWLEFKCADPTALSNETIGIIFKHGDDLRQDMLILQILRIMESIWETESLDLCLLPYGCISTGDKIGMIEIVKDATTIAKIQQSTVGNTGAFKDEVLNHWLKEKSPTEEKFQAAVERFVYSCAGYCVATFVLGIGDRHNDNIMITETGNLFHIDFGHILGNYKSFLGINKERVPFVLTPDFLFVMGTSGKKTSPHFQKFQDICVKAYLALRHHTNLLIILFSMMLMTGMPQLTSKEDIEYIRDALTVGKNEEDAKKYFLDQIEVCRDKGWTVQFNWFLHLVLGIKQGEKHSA
T4 sequence (Q15349 whole entry): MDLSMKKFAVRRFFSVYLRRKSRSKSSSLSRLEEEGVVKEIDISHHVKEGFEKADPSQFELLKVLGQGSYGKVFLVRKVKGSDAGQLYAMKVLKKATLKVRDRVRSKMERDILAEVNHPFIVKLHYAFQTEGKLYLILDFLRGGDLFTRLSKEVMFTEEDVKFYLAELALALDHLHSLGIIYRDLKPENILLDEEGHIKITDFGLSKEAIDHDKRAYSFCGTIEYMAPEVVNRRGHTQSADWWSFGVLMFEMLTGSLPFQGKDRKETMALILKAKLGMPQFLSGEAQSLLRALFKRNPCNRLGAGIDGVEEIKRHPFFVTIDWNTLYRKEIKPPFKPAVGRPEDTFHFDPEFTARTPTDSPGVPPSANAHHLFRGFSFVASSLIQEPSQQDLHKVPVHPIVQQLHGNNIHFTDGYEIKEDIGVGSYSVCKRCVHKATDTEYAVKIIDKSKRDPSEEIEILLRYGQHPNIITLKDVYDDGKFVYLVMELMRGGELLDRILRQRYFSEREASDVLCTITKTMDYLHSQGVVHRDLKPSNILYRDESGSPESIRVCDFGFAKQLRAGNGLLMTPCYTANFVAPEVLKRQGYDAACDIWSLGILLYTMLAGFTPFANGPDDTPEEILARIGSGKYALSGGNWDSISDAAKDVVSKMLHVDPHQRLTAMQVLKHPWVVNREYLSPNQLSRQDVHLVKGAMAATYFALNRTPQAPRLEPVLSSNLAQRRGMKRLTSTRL
T3 sequence (Q9P289 whole entry): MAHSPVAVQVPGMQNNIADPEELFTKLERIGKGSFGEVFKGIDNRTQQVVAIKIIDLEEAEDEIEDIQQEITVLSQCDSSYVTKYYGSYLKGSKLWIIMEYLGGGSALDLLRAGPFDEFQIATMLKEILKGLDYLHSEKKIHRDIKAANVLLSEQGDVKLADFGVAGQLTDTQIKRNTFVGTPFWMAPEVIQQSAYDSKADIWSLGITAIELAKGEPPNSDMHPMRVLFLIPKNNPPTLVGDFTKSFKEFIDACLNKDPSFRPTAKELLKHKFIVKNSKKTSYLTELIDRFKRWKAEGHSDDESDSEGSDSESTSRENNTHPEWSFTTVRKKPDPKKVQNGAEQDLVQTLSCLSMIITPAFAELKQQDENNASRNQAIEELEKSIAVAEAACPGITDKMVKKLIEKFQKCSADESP
T1 sequence (P00533 25-1210 L861Q): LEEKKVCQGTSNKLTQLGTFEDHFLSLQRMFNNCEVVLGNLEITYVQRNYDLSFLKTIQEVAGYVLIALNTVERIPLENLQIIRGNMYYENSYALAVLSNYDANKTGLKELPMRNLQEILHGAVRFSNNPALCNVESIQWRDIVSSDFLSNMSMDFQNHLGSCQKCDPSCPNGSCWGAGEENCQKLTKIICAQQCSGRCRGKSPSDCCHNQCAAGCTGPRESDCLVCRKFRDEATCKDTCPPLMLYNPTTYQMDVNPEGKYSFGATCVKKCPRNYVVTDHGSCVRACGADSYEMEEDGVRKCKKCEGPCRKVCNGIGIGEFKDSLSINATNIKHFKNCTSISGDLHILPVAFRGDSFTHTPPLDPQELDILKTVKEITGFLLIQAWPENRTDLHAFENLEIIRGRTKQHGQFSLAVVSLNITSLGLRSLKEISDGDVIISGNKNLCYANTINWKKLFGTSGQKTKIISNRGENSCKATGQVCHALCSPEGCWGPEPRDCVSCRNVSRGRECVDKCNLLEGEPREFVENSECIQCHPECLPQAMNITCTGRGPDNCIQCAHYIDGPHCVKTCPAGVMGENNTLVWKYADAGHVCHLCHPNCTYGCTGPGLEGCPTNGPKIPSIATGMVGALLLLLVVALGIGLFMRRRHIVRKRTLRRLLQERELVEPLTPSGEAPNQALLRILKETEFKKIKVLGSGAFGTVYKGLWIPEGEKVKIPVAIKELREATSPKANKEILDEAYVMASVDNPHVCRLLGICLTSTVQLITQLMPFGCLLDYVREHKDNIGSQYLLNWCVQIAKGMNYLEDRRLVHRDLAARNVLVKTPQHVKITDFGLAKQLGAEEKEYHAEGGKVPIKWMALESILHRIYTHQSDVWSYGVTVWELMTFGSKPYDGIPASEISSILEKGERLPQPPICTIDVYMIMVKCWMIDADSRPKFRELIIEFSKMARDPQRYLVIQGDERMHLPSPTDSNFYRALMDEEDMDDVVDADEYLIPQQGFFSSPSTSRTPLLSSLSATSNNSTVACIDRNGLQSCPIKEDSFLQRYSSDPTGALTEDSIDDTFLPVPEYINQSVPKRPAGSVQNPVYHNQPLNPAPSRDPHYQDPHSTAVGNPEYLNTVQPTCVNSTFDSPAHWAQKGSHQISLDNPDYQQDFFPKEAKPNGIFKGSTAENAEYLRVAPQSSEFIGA

`COc1cc(C(=O)N2CCC(N3CCN(C)CC3)CC2)ccc1Nc1ncc2c(n1)N(C)c1ccccc1C(=O)N2C` [15 (LRRK2-IN-1)] was tested, and the “KINOMEscan: EGFR(L861Q)” value (panel of 442 kinases [1]) was 100, the “KINOMEscan: PIK3CG” value (panel of 442 kinases [2]) was 15 and the “KINOMEscan: MST4” value (panel of 442 kinases [3]) was 95. For the same molecule, the “% Ctrl, RSK3(Kin.Dom.1-N-terminal)” value (panel of 442 kinases [4]) was 83 % Ctrl and the “% Ctrl, RSK3(Kin.Dom.2-C-terminal)” value (panel of 442 kinases [4]) was 7.5 % Ctrl.
In the case of `CCOc1cc(C(=O)N2CCC(N3CCN(C)CC3)CC2)ccc1Nc1ncc2c(n1)N(C1CCCC1)c1ccccc1C(=O)N2C` [Compound 26], the “KINOMEscan: EGFR(L861Q)” value (panel of 442 kinases [1]) is reported as 100, the “KINOMEscan: PIK3CG” value (panel of 442 kinases [2]) is reported as 82 and the “KINOMEscan: MST4” value (panel of 442 kinases [3]) is reported as 100. The “% Ctrl, RSK3(Kin.Dom.1-N-terminal)” value (panel of 442 kinases [4]) was 100 % Ctrl and the “% Ctrl, RSK3(Kin.Dom.2-C-terminal)” value (panel of 442 kinases [4]) was 83 % Ctrl.
For `COc1cc(C(=O)N2CCC(N3CCN(C)CC3)CC2)ccc1Nc1ncc2c(n1)N1CCc3cccc(c31)C(=O)N2C` [Compound 24], the “KINOMEscan: EGFR(L861Q)” value (panel of 442 kinases [1]) was 82, the “KINOMEscan: PIK3CG” value (panel of 442 kinases [2]) was 30 and the “% Ctrl, RSK3(Kin.Dom.1-N-terminal)” value (panel of 442 kinases [4]) was 100 % Ctrl. For the same molecule, the “% Ctrl, RSK3(Kin.Dom.2-C-terminal)” value (panel of 442 kinases [4]) was 13 % Ctrl.
For `COc1cc(C(=O)N2CCC(N3CCN(C)CC3)CC2)ccc1Nc1ncc2c(n1)N(C1CCCC1)c1ccccc1C(=O)N2C` [Compound 25, 11-cyclopentyl-2-((2-methoxy-4-(4-(4-methylpiperazin-1-yl)piperidine-1-carbonyl)phenyl)amino)-5-methyl-5H-benzo[e]pyrimido[5,4-b][1,4]diazepin-6(11H)-one], the “KINOMEscan: EGFR(L861Q)” value (panel of 442 kinases [1]) was 89, the “KINOMEscan: PIK3CG” value (panel of 442 kinases [2]) was 80 and the “KINOMEscan: MST4” value (panel of 442 kinases [3]) was 100. The “% Ctrl, RSK3(Kin.Dom.1-N-terminal)” value (panel of 442 kinases [4]) was 100 % Ctrl and the “% Ctrl, RSK3(Kin.Dom.2-C-terminal)” value (panel of 442 kinases [4]) was 78 % Ctrl.
